# Measurements from patent publication US20160318856A1, “Substituted Urea eIF2alpha Kinase Activators” (THE BRIGHAM AND WOMEN'S HOSPITAL, INC., priority 2013, published 2016).
# Where two headings read alike, the source gives them in different places.
# Key:
# PC-3 = assay: cell proliferation assay, PC-3; format: cell-based; conditions: Homo sapiens; PC-3, Prostate
# Experimental: (§1) Cells were seeded in 96-well plates and maintained for 5 days in the presence of 0.5 to 20 μM of individual compound, and cell proliferation was measured by the sulforhodamine B (SRB) assay as described previously (see, for example, Palakurthi, S. S. et al. Cancer Research 2000, 60(11), 2919-2925). Briefly, at the end of a 5-day treatment, cells were fixed in 10% cold trichloroacetic acid. Cell number was estimated by measuring the remaining bound dye of sulforhodamine B after washing. The percentage of growth was calculated by using the equation: 100×[(T−T0)/(C−T0)], where T and C represent the absorbance in treated and control cultures at Day 5, and T0 at time zero, respectively. If T is less than T0, cell death has occurred and can be calculated from 100×[(T−T0)/T0].
# [1] = test system: CRL-2813 human melanoma cancer cells; assay: cell proliferation (SRB) assay, CRL-2813; format: cell-based; conditions: Homo sapiens, CRL2813
# Method in brief: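 Cells exposed 5 days to 0.5–20 μM compound, then TCA-fixed and stained with sulforhodamine B. Growth as 100×[(T−T0)/(C−T0)] from absorbance of treated, control and time-zero cultures; cell death as 100×[(T−T0)/T0] where T is below T0.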
# [2] = test system: eIF2α phosphorylation (eIF2•GTP•Met-tRNAi ternary complex; HRI activation); assay: surrogate dual luciferase eIF2α phosphorylation (ternary complex) assay; format: cell-based, human; conditions: Homo sapiens; surrogate eIF2α phosphorylation assay, Table 3; read-out: Emax (F/R)
# Method in brief: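 Cell-based dual luciferase reporter: firefly luciferase behind the ATF-4 5′UTR (uORFs) and renilla luciferase behind a uORF-free 5′UTR, read with a dual glow kit. Activity given as firefly/renilla ratio normalised to DMSO wells set at 1, with a rising ratio reflecting reduced ternary complex (e.g., HRI activation).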
# HT-29 = assay: cell proliferation assay, HT-29; format: cell-based; conditions: Homo sapiens; HT-29, Colon
# Experimental: as §1
# Huh-7 = assay: cell proliferation assay, Huh-7; format: cell-based; conditions: Homo sapiens; Huh-7, Liver
# Experimental: as §1
# T47D = assay: cell proliferation assay, T47D; format: cell-based; conditions: Homo sapiens, Breast
# Experimental: as §1
# NIH/3T3 fibroblast cells = assay: cell proliferation (SRB) assay, NIH/3T3; format: cell-based; conditions: for IC50: Mus musculus, NIH3T3
# Experimental: as §1
# The experiments were conducted in triplicate, and each experiment was independently performed three times. IC50=effective dose of drug that inhibit cell proliferation by 50%. Data are shown as Mean±S.E.M.
# Compounds I-6p, I-17, I-18 and I-20 were tested in NIH/3T3 fibroblast and CRL-2813 melanoma cancer cells in cell proliferation assay. The experiment was conducted in triplicate and each experiment was independently performed three times. Data are shown as Mean IC50±S.E.M.
# [3] = test system: MCF-7 human breast cancer cells; assay: cell proliferation assay, MCF-7; format: cell-based; conditions: MCF7, MCF-7, Breast
# Experimental: as §1
# RAMOS = assay: cell proliferation assay, RAMOS; format: cell-based; conditions: Homo sapiens, Lymphoma
# Experimental: as §1
# CaSki = assay: cell proliferation assay, CaSki; format: cell-based; conditions: Homo sapiens, Ca-Ski, Cervix
# Experimental: as §1
# HEP B3 = assay: cell proliferation assay, HEP B3; format: cell-based; conditions: HEP B3, Liver
# Experimental: as §1
structure (smiles),measurement,setting,value
"O=C(Nc1cccc(C(F)(F)F)c1)NC1CCC(Oc2ccc(OC(F)(F)F)cc2)CC1 (centres unmarked) [Compound I-17, 1-(4-(4-(trifluoromethoxy)phenoxy)cyclohexyl)-3-(3-(trifluoromethyl)phenyl)urea]",IC50,PC-3,2900 nM
same,IC50,"[1]; CRL-2813, Table 8, Mean IC50±S.E.M., read-out: IC50 of compounds",690 ± 100 nM
same,IC50,"[1]; cell proliferation assay, Table 3, cell line not named, values equal CRL-2813 values of Table 8, read-out: IC50",690 ± 100 nM
same,maximal fold induction,[2],15.4
same,IC50,HT-29,2700 nM
same,IC50,Huh-7,2100 nM
same,IC50,T47D,1200 nM
same,fold higher potency on cancer cells compared to non-transformed cells,NIH/3T3 fibroblast cells; CRL-2813 human melanoma vs NIH-3T3 fibroblast,five-fold higher potency
same,IC50,"NIH/3T3 fibroblast cells; NIH/3T3, Table 5, Mean±S.E.M., read-out: IC50",3400 ± 200 nM
same,IC50,"NIH/3T3 fibroblast cells; NIH/3T3, Table 8, Mean IC50±S.E.M., read-out: IC50 of compounds",3400 ± 200 nM
same,IC50,[3],1300 nM
same,IC50,RAMOS,800 nM
same,IC50,CaSki,2800 nM
same,IC50,HEP B3,1800 nM
